Laboratory results from publication PMC4742142, “Identification of novel, in vivo active Chk1 inhibitors utilizing structure guided drug design” (Oncotarget, 2015).
“Also recorded” adds a separate entry of the source. Read-outs that look alike come from different tables or passages of the source.

What was measured:
Chk1 [1] = biological target: T1, Chk1 (Homo sapiens, UniProt O14757); experiment: In vitro kinase assay, Chk1; assay type: biochemical
T1 sequence (O14757 1-476): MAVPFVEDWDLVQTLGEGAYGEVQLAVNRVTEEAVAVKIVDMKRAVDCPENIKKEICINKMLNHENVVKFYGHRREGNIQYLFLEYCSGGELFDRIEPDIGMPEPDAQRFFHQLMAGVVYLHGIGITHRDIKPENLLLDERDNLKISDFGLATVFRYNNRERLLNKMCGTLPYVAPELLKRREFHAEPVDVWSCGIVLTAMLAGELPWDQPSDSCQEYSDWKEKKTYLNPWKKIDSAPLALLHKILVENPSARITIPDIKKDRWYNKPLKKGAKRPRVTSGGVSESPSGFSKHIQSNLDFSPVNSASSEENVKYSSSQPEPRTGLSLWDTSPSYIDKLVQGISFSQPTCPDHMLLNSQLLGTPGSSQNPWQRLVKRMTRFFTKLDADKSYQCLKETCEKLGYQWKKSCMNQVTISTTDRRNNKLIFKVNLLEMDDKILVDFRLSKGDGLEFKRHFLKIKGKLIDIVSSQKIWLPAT
Method: Kinase assays were performed as previously described.

Chk1 [2] = biological target: T1, Chk1; experiment: Etoposide induced Chk1 autophosphorylation (pS296) in HT29 cells, immunoblotting; assay type: cell-based
Method: (§1) Figure 3 Effect of V158411 on etoposide, gemcitabine and camptothecin induced DNA damage checkpoint and cell cycle proteins A. HT29 cells were exposed to increasing concentrations of V158411 for 1 hour followed by 25 μM etoposide for a further 5 hours. Auto-phosphorylation of Chk1 and Chk2 was determined by immunoblotting. B. HT29 cells were treated with gemcitabine (25 nM) or camptothecin (50 nM) for 16 hours followed by increasing doses of V158411 for a further 24 hours. C. HT29 cells were treated with 500 nM V158411 for 1 hour, media removed and replaced with drug free. Cells were harvested at the indicated time points post the removal of V158411. D. HT29 cells were treated with 0 or 100 nM camptothecin for 16 hours followed by V158411 for 2 - 24 hours. After the indicated time, media was removed and replaced with drug free media. All cells were harvested 24 hours after the initial addition of V158411. Protein expression was characterized by immunoblotting as described in materials and methods.
Anti-pHistone H3 (S10) was obtained from Millipore; pCdc2 (Y15), pCdc25C (S216), Chk1, pChk1 (S317), pChk2 (S516), Cyclin B1, pH2AX (S139), GAPDH and Actin from Cell Signaling Technologies and pChk1 (S296) from Abcam. Treated and untreated cells were washed once with PBS and lysed in RIPA buffer containing protease and phosphatase inhibitor cocktail (Roche). Protein concentration was determined using BCA kit (Pierce). Equal amounts of lysate were separated by SDS-PAGE and western blot analysis conducted using the antibodies indicated above.

[3] = tested on: panel of human cancer cell lines; experiment: Single agent cytotoxicity, whole panel; assay type: cell-based; details: range over the cell lines, read-out: GI50s across the panel
Method: All cells were obtained from the American Type Culture Collection and maintained as low passage stocks. Cells were routinely cultured in DMEM or RPMI1640 containing 10% FCS and 1% penicillin / streptomycin (Invitrogen). The cytotoxicity of V158411 was determined following exposure of cells in 96 well plates using a 10-point titration for 72 hours. Cell proliferation was determined using sulphorhodamine B staining following protein precipitation with 10% TCA.

[4] = Plasma pharmacokinetics, IV bolus; assay type: in vivo; details: 10 mg/kg IV; for Vd: read-out: Vss
Method: Dosing of animals and collection of samples was conducted by Quotient Bioresearch (Rushden) Ltd, UK. V158411 was administered by intravenous (IV) bolus injection to female Balb/C mice, male Sprague-Dawley rats or male beagle dogs. Plasma samples were prepared by protein precipitation with acetonitrile containing internal standard (IS; dextromethorphan, 0.5 μg/mL); the analysis plate was centrifuged at 3,000 rpm for 10 minutes at 4°C. […] The ratios of analyte against IS peak areas were calculated, and concentrations derived from calibration lines generated by Quanlynx (Waters Ltd.).
Pharmacokinetic parameters were calculated using the software package WinNonLin (Pharsight Corp.). Data was analyzed using noncompartmental analysis and fitted using plasma concentration versus time curves.

SW620 xenograft = SW620 xenograft antitumor efficacy
From the text: Xenograft studies were undertaken by Charles River Laboratories Discovery Services, North Carolina. On the day of tumor cell implant, Colo205 cells were harvested and resuspended in 50% Matrigel matrix (BD Biosciences) in PBS at a concentration of 5 × 10^6 cells/mL. Each test mouse received 1 × 10^6 Colo205 cells implanted subcutaneously (SC) in the flank of female athymic nude mice (HRLN or NCr nu/nu), and tumor growth was monitored as the average size approached 100-150 mm^3. The SW620 tumor line was maintained by serial SC transplantation in female athymic nude mice (HRLN nu/nu). Tumor fragments, approximately 1 mm^3 each, were implanted SC into the right flank of each animal and allowed to grow towards a target size of 100-150 mm^3. On day 1 of the study, tumors were randomized into treatment groups before compound administration.
V158411 was formulated in D5W and administered via IV injection into the tail vein. Cyclic treatment regimens were followed and treatment ranged from 2-3 cycles.
Tumor size was measured with electronic calipers and tumor volume calculated according to the formula ((width × width) × length) /2.
The study endpoint was defined as a tumor volume of 750 mm^3 for Colo205 or 1500 mm^3 for SW620, or day 60, whichever came first. Each animal was euthanized when its' tumor reached this endpoint. The time to endpoint (TTE) for each mouse was calculated from the equation TTE = (log10(endpoint volume)-b)/m where b is the intercept and m the slope of the line obtained by linear regression of a log-transformed tumor growth data set.

Chk2 = Chk2 (Homo sapiens, UniProt O96017); experiment: Etoposide induced Chk2 autophosphorylation (pS516) in HT29 cells, immunoblotting; assay type: cell-based; set-up: endogenous in cells; host or cells: HT29; details: 1 hour compound then 25 μM etoposide 5 hours
Chain of Chk2 (O96017 whole entry): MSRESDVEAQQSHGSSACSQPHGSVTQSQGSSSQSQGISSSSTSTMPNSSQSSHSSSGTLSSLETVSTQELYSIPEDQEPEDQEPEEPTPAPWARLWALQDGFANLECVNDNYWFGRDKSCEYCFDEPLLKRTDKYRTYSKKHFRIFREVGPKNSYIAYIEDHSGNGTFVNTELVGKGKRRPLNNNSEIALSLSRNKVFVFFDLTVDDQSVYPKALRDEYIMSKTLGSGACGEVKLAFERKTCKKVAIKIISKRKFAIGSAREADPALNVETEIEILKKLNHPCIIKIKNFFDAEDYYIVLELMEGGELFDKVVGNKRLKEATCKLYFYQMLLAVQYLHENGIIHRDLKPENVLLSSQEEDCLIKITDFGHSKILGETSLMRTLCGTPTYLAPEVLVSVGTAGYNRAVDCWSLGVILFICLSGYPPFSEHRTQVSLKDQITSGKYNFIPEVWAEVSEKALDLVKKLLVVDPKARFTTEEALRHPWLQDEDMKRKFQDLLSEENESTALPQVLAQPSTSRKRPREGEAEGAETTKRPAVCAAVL
Method: as §1
Anti-pHistone H3 (S10) was obtained from Millipore; pCdc2 (Y15), pCdc25C (S216), Chk1, pChk1 (S317), pChk2 (S516), Cyclin B1, pH2AX (S139), GAPDH and Actin from Cell Signaling Technologies and pChk1 (S296) from Abcam. […] Protein concentration was determined using BCA kit (Pierce). […]

[5] = SW620, 100 mg/kg irinotecan followed by 30 mg/kg V158411
[6] = SW620, 100 mg/kg irinotecan followed by 60 mg/kg V158411

CN(C)CC(C)(C)COc1ccc2[nH]c(-c3cc(NC(=O)c4cnn(Cc5ccccc5)c4)c[nH]c3=O)cc2c1 [V158411]
IC50 (Chk1 [1]): 4.4 nM
IC50 for Chk1 autophosphorylation and EC50 for H2AX phosphorylation lower than single agent GI50 (Chk1 [2]): around 10 fold
IC50 (Chk1 [2]; 1 hour compound then 25 μM etoposide 5 hours): 48 nM
cellular selectivity for Chk1 versus Chk2 (Chk1 [2]; etoposide): 19 fold
IC50 [3]: 500 to 9500 nM
AUC(0-t) ([4]; female, Balb/C, mouse): 7100 ng·h/mL
clearance ([4]; female, Balb/C, mouse): 20 mL/min/kg
half-life ([4]; female, Balb/C, mouse): 2.9 h
Vd ([4]; female, Balb/C, mouse): 3.3 L/kg
AUC(0-t) ([4]; male, Sprague-Dawley, rat): 6910 ng·h/mL
clearance ([4]; male, Sprague-Dawley, rat): 23.2 mL/min/kg
half-life ([4]; male, Sprague-Dawley, rat): 3.3 h
Vd ([4]; male, Sprague-Dawley, rat): 2.4 L/kg
AUC(0-t) ([4]; male, beagle, dog): 16000 ng·h/mL
clearance ([4]; male, beagle, dog): 10.6 mL/min/kg
half-life ([4]; male, beagle, dog): 3.2 h
Vd ([4]; male, beagle, dog): 1.2 L/kg
%TGD (SW620 xenograft; [5]): 117%
T-C (SW620 xenograft; [5]): 15.5
Median TTE (SW620 xenograft; SW620, 100 mg/kg irinotecan followed by 30 mg/kg V158411 2 hours later): 28.8 days
%TGD (SW620 xenograft; [6]): 154%
T-C (SW620 xenograft; [6]): 21.3
Median TTE (SW620 xenograft; SW620, 100 mg/kg irinotecan followed by 60 mg/kg V158411 2 hours later): 35.1 days
single agent anti-tumor activity (SW620 xenograft; SW620, V158411 monotherapy): did not inhibit tumor growth; also recorded: no single agent activity
mean body weight nadir (SW620 xenograft; SW620, irinotecan plus 60 mg/kg V158411, day 5): −13.3%
IC50 (Chk2): 904 nM
